Experimental findings from article PMC3973022, “Quercetin and quercetin 3-O-glycosides from Bauhinia longifolia (Bong.) Steud. show anti-Mayaro virus activity” (Parasites & Vectors, 2014) are described below.

The structures appear in SMILES notation. ≈ marks a conversion by molar mass, not a printed value. Entries after “also recorded” stand apart in the source; their conditions may differ. A value given as a limit tells only on which side of the number the result lay.

In one series the test system is Mayaro virus (MAYV). Nature of the series: microbe, parasite or virus in culture. It counts as cell-based. Conditions: for IC90: Vero, 24 h, read-out: IC90 (90% inhibitory concentration of viral replication); for IC50: read-out: IC50 (50% inhibitory concentration of viral replication), MAYV MOI 0.1 in Vero cells, 24 h treatment; for anti-MAYV activity (in words): concentrations tested 0–100 μg/ml. The protocol:
(§1) Vero cells (African green monkey kidney, ATCC CCL-81) were grown at 37°C with 5% CO2, in Dulbecco’s modified Eagle’s medium (DMEM) (Life Technologies, USA) supplemented with 5% fetal bovine serum (Cultilab, BRA), 50 IU/mL of penicillin, and 50 μg/mL of streptomycin (Sigma-Aldrich, USA). Mayaro viruses (ATCC VR-66, lineage TR 4675) were propagated in Vero cells and viral stocks in 10% glycerol were kept at -70°C. Virus titer was determined by plaque assay (described under ‘Antiviral activity assay’).
Antiviral activity was evaluated using a virus yield inhibition assay. Briefly, confluent cell monolayers grown in 24-well plates were infected with MAYV (multiplicity of infection = 0.1) for 1 hour, then rinsed with PBS and treated for 24 hours (at 37°C and 5% CO2) with different concentrations (0–100 μg/ml) of flavonoids or extracts diluted in culture medium. After treatment, culture supernatants were recovered and used for titration of extracellular infectious virus particles. For virus titration, confluent cell monolayers in 24-well plates were infected with serial dilutions of recovered supernatants for 1 hour at 37°C, 5% CO2. After inoculum removal, cells were rinsed with PBS and the monolayer was incubated with fresh medium with 2% carboxymethylcellulose (Sigma-Aldrich, USA) for 48 hours at 37°C, 5% CO2. Finally, cells were fixed with 20% formaldehyde and stained with 0.5% crystal violet in 20% ethanol, and viral plaques were counted. […] P-values < 0.05 were considered statistically significant.

Series [1] can be described thus: Cytotoxicity by dye-uptake (neutral red) assay. Conditions: African green monkey. The protocol: as §1
Briefly, confluent cultures of Vero cells in 96-well microplates were treated with culture media containing different concentrations of the substances being tested. After 24 hours, the culture medium was replaced by a solution of 50 μg/mL neutral red and the cells were incubated for 3 hours, at 37°C, 5% CO2. Cells were then fixed with 20% formaldehyde and extracted with 50% methanol and 1% acetic acid, before measurement of absorbance at λ490 nm, using a spectrophotometer, to detect neutral red incorporation by living cells.

One may read the CC50 as the concentration that lowers cell viability or growth by half. As to `O=c1c(O)c(-c2ccc(O)c(O)c2)oc2cc(O)cc(O)c12` [Quercetin, quercetin], the “SI (Selectivity Index = CC50/IC50)” value in the series on Mayaro virus (MAYV) (CC50 in Vero cells / IC50 against MAYV) turned out to be 94. Besides, in the series on Mayaro virus (MAYV) (Mayaro virus), the IC90 came to 19 ± 0.7 µg/mL (≈ 62.9 µM) and the IC50 was 10 ± 0.7 µg/mL (≈ 33.1 µM). Besides, the inhibition at 25 µg/mL in the series on Mayaro virus (MAYV) (Mayaro virus, at 25 μg/mL, Vero cells, read-out: inhibition of MAYV replication/production) is more than 90%. For the same molecule, the “anti-MAYV activity (in words)” value with Mayaro virus (MAYV) (Vero cells) is listed as “showed significant anti-MAYV activity”. The 50% cytotoxic concentration (CC50) at 24 h in series [1] was determined as 941 ± 123 µg/mL (≈ 3110 µM).
For `NC(=O)c1ncn([C@@H]2O[C@H](CO)[C@@H](O)[C@H]2O)n1` [Ribavirin, reference compound], in the series on Mayaro virus (MAYV) (Mayaro virus), the IC90 is more than 100 µg/mL and the IC50 was 62 ± 4 µg/mL (≈ 254 µM). Further, the CC50 at 24 h in series [1] was determined as 523 ± 42 µg/mL (≈ 2140 µM).
With `C[C@@H]1O[C@@H](Oc2c(-c3ccc(O)c(O)c3)oc3cc(O)cc(O)c3c2=O)[C@H](O)[C@H](O)[C@H]1O` [Quercitrin, quercetin-3-O-α-rhamnoside], in the series on Mayaro virus (MAYV) (Mayaro virus), the IC90 was more than 100 µg/mL and the IC50 is more than 100 µg/mL. Further, in the series with Mayaro virus (MAYV) (Vero cells), the “anti-MAYV activity (in words)” value is reported as “did not show significant antiviral activity; also recorded: absence of anti-MAYV activity”. In series [1], this molecule came in with a CC50 at 24 h of 411 ± 46 µg/mL (≈ 917 µM).
Take `O=c1c(OC2OCC(O)C(O)C2O)c(-c2ccc(O)c(O)c2)oc2cc(O)cc(O)c12` (stereo not drawn) [Guaijaverin, quercetin-3-O-α-arabinoside]: in the series with Mayaro virus (MAYV) (Mayaro virus), the IC90 is more than 100 µg/mL and the IC50 was more than 100 µg/mL. Moreover, the “anti-MAYV activity (in words)” value with Mayaro virus (MAYV) (Vero cells) is recorded as “did not show significant antiviral activity; also recorded: absence of anti-MAYV activity”. The half-maximal cytotoxic concentration (CC50) at 24 h in series [1] was 795 ± 54 µg/mL (≈ 1830 µM).
